This passage reports IC50 and viability, T/C results from PubChem BioAssay AID2060356 (Molecular Pharmacology Branch, DTP, NCI, 2025).

Structures are written as SMILES. Several values for one entry are separate records, joined by “and”; a condition that tells them apart may be missing. Equal entries are not always repeated.

What is called IC50 is the concentration needed to halve the response being measured. By viability, T/C is commonly meant the result in the treated group divided by that in the control group, in per cent.

For this experiment, the system named is PDC tumor spheroids with HUVEC/MSC, viability. As to the kind of experiment: Anticancer human tumor 439559-082-T-J2-PDC patient-derived colon adenocarcinoma cell line growth inhibition [TAK]. The note with it: for viability, T/C: stronger effect = lower value. The essentials: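 Tumor cells were grown as spheroids with HUVEC and hMSC (60:25:15) and treated with targeted agents combined with TAK-243 or ipatasertib. Drugs were tested in half-log steps down from near the clinical Cmax, or from 10 microM where Cmax was unknown.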

Setting [1] is: curve of first compound, second compound 0.3 µM.
Where [2] appears, read: curve of first compound, second compound 0.949 µM.
Where [3] appears, read: curve of first compound, second compound 3 µM.
Where [4] appears, read: curve of first compound, second compound 9.49 µM.
The mark [5] stands for this setting: curve of first compound, second compound 30 µM.
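Note: spheroids exposed to drugs for seven days before readout.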

Take `CC(=O)Nc1cccc(-n2c(=O)n(C3CC3)c(=O)c3c(Nc4ccc(I)cc4F)n(C)c(=O)c(C)c32)c1` + CC(C)NCC(C(=O)N1CCN(c2ncnc3c2C(C)CC3O)CC1)c1ccc(Cl)cc1: the IC50 is, setting by setting: under setting [1], greater than 0.03 µM; under setting [2], greater than 0.03 µM; under setting [3], greater than 0.03 µM; under setting [4], greater than 0.03 µM; under setting [5], greater than 0.03 µM. Further, the viability, T/C was 105% (second compound 0.3 µM, first compound 94.9 pM); 97.6% (second compound 0.3 µM, first compound 0.0003 µM); 85.8% (second compound 0.3 µM, first compound 0.000949 µM); 74.3% (second compound 0.3 µM, first compound 0.003 µM); 70.5% (second compound 0.3 µM, first compound 0.00949 µM); 62.1% (second compound 0.3 µM, first compound 0.03 µM). Further, the viability, T/C is 90.4% (second compound 0.949 µM, first compound 94.9 pM); 89.7% (second compound 0.949 µM, first compound 0.0003 µM); 93.9% (second compound 0.949 µM, first compound 0.000949 µM); 75.1% (second compound 0.949 µM, first compound 0.003 µM); 66.6% (second compound 0.949 µM, first compound 0.00949 µM); 62.2% (second compound 0.949 µM, first compound 0.03 µM). The viability, T/C was 102% (second compound 3 µM, first compound 94.9 pM); 98.8% (second compound 3 µM, first compound 0.0003 µM); 76.8% (second compound 3 µM, first compound 0.000949 µM); 77.2% (second compound 3 µM, first compound 0.003 µM); 72.9% (second compound 3 µM, first compound 0.00949 µM); 61% (second compound 3 µM, first compound 0.03 µM). For the same molecule, the viability, T/C reads like this: (second compound 9.49 µM, first compound 94.9 pM) 88.7%; (second compound 9.49 µM, first compound 0.0003 µM) 92.9%; (second compound 9.49 µM, first compound 0.000949 µM) 84.4%; (second compound 9.49 µM, first compound 0.003 µM) 80.5%; (second compound 9.49 µM, first compound 0.00949 µM) 66.9%; (second compound 9.49 µM, first compound 0.03 µM) 55.1%. The viability, T/C reads like this: (second compound 30 µM, first compound 94.9 pM) 89%; (second compound 30 µM, first compound 0.0003 µM) 91.8%; (second compound 30 µM, first compound 0.000949 µM) 81.7%; (second compound 30 µM, first compound 0.003 µM) 73.5%; (second compound 30 µM, first compound 0.00949 µM) 69.2%; (second compound 30 µM, first compound 0.03 µM) 54.8%.

With `CC(C)CC(NC(=O)C(Cc1ccccc1)NC(=O)c1cnccn1)B(O)O` (configuration not stated), the viability, T/C is 111% and 105% (compound 31.6 pM); 104% and 98.9% (compound 0.0001 µM); 102% and 98.8% (compound 0.000316 µM); 103% and 101% (compound 0.001 µM); 100% and 97.5% (compound 0.00316 µM); 66.4% and 69.6% (compound 0.01 µM). Further, the concentration for half-maximal inhibition (IC50) (curve of compound) is greater than 0.01 µM.

As for `CCCS(=O)(=O)Nc1ccc(F)c(C(=O)c2c[nH]c3ncc(-c4ccc(Cl)cc4)cc23)c1F` + CC(C)NCC(C(=O)N1CCN(c2ncnc3c2C(C)CC3O)CC1)c1ccc(Cl)cc1, the IC50 reads like this: under setting [1], greater than 100 µM; under setting [2], greater than 100 µM; under setting [3], greater than 100 µM; under setting [4], greater than 100 µM; under setting [5], 24.8 µM. Also, the viability, T/C is 117% (second compound 0.3 µM, first compound 0.316 µM); 103% (second compound 0.3 µM, first compound 1 µM); 100% (second compound 0.3 µM, first compound 3.16 µM); 91.5% (second compound 0.3 µM, first compound 10 µM); 93.4% (second compound 0.3 µM, first compound 31.6 µM); 106% (second compound 0.3 µM, first compound 100 µM). Further, the viability, T/C by setting is: (second compound 0.949 µM, first compound 0.316 µM) 122%; (second compound 0.949 µM, first compound 1 µM) 99.1%; (second compound 0.949 µM, first compound 3.16 µM) 94.6%; (second compound 0.949 µM, first compound 10 µM) 86.2%; (second compound 0.949 µM, first compound 31.6 µM) 21.8%; (second compound 0.949 µM, first compound 100 µM) 100%. In addition, the viability, T/C is, setting by setting: (second compound 3 µM, first compound 0.316 µM) 108%; (second compound 3 µM, first compound 1 µM) 107%; (second compound 3 µM, first compound 3.16 µM) 88.3%; (second compound 3 µM, first compound 10 µM) 76%; (second compound 3 µM, first compound 31.6 µM) 51.6%; (second compound 3 µM, first compound 100 µM) 94.6%. The viability, T/C is 96.6% (second compound 9.49 µM, first compound 0.316 µM); 101% (second compound 9.49 µM, first compound 1 µM); 80.1% (second compound 9.49 µM, first compound 3.16 µM); 72.5% (second compound 9.49 µM, first compound 10 µM); 8.73% (second compound 9.49 µM, first compound 31.6 µM); 88.5% (second compound 9.49 µM, first compound 100 µM). Further, the viability, T/C (second compound 30 µM, first compound 0.316 µM) is 87.9%; the viability, T/C (second compound 30 µM, first compound 1 µM) is 94.6%; the viability, T/C (second compound 30 µM, first compound 3.16 µM) was 84.8%; the viability, T/C (second compound 30 µM, first compound 10 µM) is 71.7%; the viability, T/C (second compound 30 µM, first compound 31.6 µM) is 1.55%; the viability, T/C (second compound 30 µM, first compound 100 µM) is 86.9%.

With `CC(C)n1nc(-c2ccc3oc(N)nc3c2)c2c(N)ncnc21`, the viability, T/C is, setting by setting: (compound 0.000316 µM) 106% and 115%; (compound 0.001 µM) 99.2% and 110%; (compound 0.00316 µM) 97.8% and 105%; (compound 0.01 µM) 83.5% and 85.3%; (compound 0.0316 µM) 76% and 76.8%; (compound 0.1 µM) 69.8% and 74.7%. Further, the concentration for half-maximal inhibition (IC50) (curve of compound) was greater than 0.1 µM.

Turning to `CC(C)CC(NC(=O)CNC(=O)c1cc(Cl)ccc1Cl)B1OC(=O)CC(CC(=O)O)(C(=O)O)O1` (configuration not stated), the viability, T/C is, setting by setting: (compound 0.000316 µM) 111% and 114%; (compound 0.001 µM) 96.4% and 98.7%; (compound 0.00316 µM) 99.3% and 98.8%; (compound 0.01 µM) 93.5% and 90.3%; (compound 0.0316 µM) 85.8% and 77.8%; (compound 0.1 µM) 62.1% and 56.6%. The half-maximal inhibitory concentration (IC50) (curve of compound) is greater than 0.1 µM.

Regarding `CC(C)NCC(C(=O)N1CCN(c2ncnc3c2C(C)CC3O)CC1)c1ccc(Cl)cc1` (configuration not stated), the viability, T/C is 101% [middle of 10 runs] (compound 0.3 µM); 94% [middle of 10 runs] (compound 0.949 µM); 83.6% [middle of 10 runs] (compound 3 µM); 80.9% [middle of 10 runs] (compound 9.49 µM); 85.8% [middle of 10 runs] (compound 30 µM). Under “compound alone, run of 02/28/2020”, the concentration for half-maximal inhibition (IC50) is greater than 30 µM.
